Laboratory results as given in patent publication US20140314904A1, “PRE-SLAUGHTER DIET INCLUDING METHIONINE” (ADISSEO FRANCE S.A.S., priority 2011, published 2014).
Like-named read-outs stand apart in the source and are kept apart here.

Tests used:
[1] = tested on: slaughter pigs; assay: Storage loss of pork chops after display period; type: in vivo, pig; settings: 7 days at 2° C., 1.1% total methionine for 7 days before slaughter, LS mean ± SEM
Source text: (§1) Twenty-one slaughter pigs ([Yorkshire×Swedish Landrace]×Hampshire) were raised on a commercial diet. Pigs were randomly assigned to one of three groups (n=7). The groups represented three feeding strategies, namely a Control group which received a standardized diet comprising 0.27% total methionine, and both a DLM and HMTBA group, receiving the same diet as the Control group throughout the feeding period, apart from the fact that they were fed a higher level of methionine (1.1% total methionine) during a seven day finishing period immediately prior to slaughter. The supplements were given in two forms, either as D L-methionine (DLM) or DL-2-hydroxy-4-methylthiobutanoic acid (HMTBA).
Pigs were slaughtered at a commercial slaughter house in Sweden after a resting time of 5 hours. At 45 minutes post mortem, pH (Knick portamess 751 pH-meter with an Ingold LOT glass electrode, Tech Instrumentering ApS, Denmark) and temperature (digital thermometer, Weber, Stephen Nordic, Denmark) were measured in the m. Longissimus dorsi (LD) at the level of the 10th rib. At 48 hours post mortem, the entire back was dissected from the carcass and transported under controlled conditions to the University of Copenhagen for further measurements.
(§2) Pork chops were cut perpendicular to the long axis of each LD muscle. Six 3 cm thick pork chops was sliced from each LD. Three were vacuum packed and three were packed in a high-oxygen modified atmosphere. The chops were placed in plastic trays (M71-43A white/PS; 195×144×43 mm in dimension; Frch Plast, Denmark) and placed in vacuum bags (EM-628862; O2 transmission rate=40-50 cm^3/m^2/24 h/bar, CO2 transmission rate=150 cm^3/m^2/24 h/bar, water-vapour transmission rate=2.6 g/m^2/24 h; LogiCon Nordic A/S, Denmark). The ambient air was removed from all vacuum bags using a vacuum machine (type, manufacturer, country). The bags intended for […] were first filled with a gas mixture (80% oxygen/20% carbon dioxide) before being sealed completely, whereas the bags intended for MAP were only partially sealed. […] (until 9 days post mortem). The gas composition was checked (CheckMate 9900, PBI Dansensor, Denmark) before packaging and again prior to opening, at the end of the simulated display period in order to check for leakage. The oxygen-enriched environment was well maintained (83.4%) throughout the display period for all MA packages.
Storage loss was determined as the weight loss percentage at the end of the display period (9 days post mortem) relative to the weight at the day of packaging (two days post mortem). The cooking loss was determined as the weight loss percentage between the pork chops before and after cooking. The results are given as the mean of the three pork chops in each meat pack.

[2] = tested on: slaughter weight pigs
Procedure: Pigs ([Yorkshire×Swedish Landrace]×Hampshire)(n=10×3 were fed twice daily 2% of their body weight with the respective diets (either low or high methionine diets), water ad libitum.
Two square stimulating electrodes were placed next to one another (not touching) and infront of the recording electrodes, after which the muscle was stimulated at 10, 20, 60, 150 and 200 Hz and the subsequent responses were recorded. Two leads were placed on either side of the abdomen at a position of the last rib to form a “triangle” with the reference electrode and serve to record both respiratory movements as well as sECG signal.
Using electrodes placed either side of the abdomen at the position of the last rib, and a reference electrode placed on the ear, it was possible to create an Einthoven triangle and to record both an ECG (plus heart rate) and respiration rate through diaphragm movements. The recorded signal was assessed in terms of rate and the Q-T interval (time taken for the ventricles to depolarize and repolarize) using Chart analysis software (AD Instruments, Chalgrove, Oxfordshire, UK).
In addition to the sEMG recordings, we were able to obtain non-invasive measurements of the rate of respiration (breaths/min) and the heart rate (bpm) as well as an analysis of the recorded ECG in terms of the time taken for ventricle depolarization and repolarization, the so-called Q-T interval.
Table 1 presents the effects of 1 weeks dietary supplementation with DLM on the respiration and heart rate of 90-100 kg slaughter weight pigs, as well as the Q-T Interval. Values are the mean of a number of pigs, where “n” represents the number of animals per group. (ns) represents a difference between means that was not quite significant.

[3] = tested on: slaughter pigs; assay: Instrumental meat colour (CIE L*a*b*), Example 1; type: in vivo, pig; settings: LS mean ± SEM
Source text: as §1, §2
Instrumental meat colour was measured with a Minolta Chroma Meter (CR-300; D65 and 2° observer angle, 8 mm diameter measuring area; Minolta, Japan). Before packaging, as described previously, colour recordings of the pork chops was carried out. At the end of the display period, the pork chops were allowed to bloom for at least 30 min at 4±2° C. once they had been removed from the vacuum bags. Colour measurements followed the CIE colour convention, where the three fundamental outputs are L*, a* and b*. L* is lightness on a scale of 0 (all light absorbed; black) to 100 (all light reflected; white); a* spans from +60 (red) to −60 (green) and b* spans from +60 (yellow) to −60 (blue). The saturation index, also known as chroma, was calculated as the square root of a*^2+b*^2 (MacDougall, 1977). Three recordings were made on each pork chop, and the mean value was used for statistical analysis.

[4] = tested on: pigs; assay: Post mortem pH and temperature in M. longissimus dorsi, Example 2; type: in vivo, pig
Procedure: The pigs were slaughtered at a commercial slaughter house in Sweden after a resting time of 5 h. At 45 minutes post mortem, pH (Knick portamess 751) and temperature (digital thermometer, Weber) were measured in the M. longissiumus dorsi at the level of the 10th rib. At 48 h post mortem, the entire loins were dissected from the carcasses and transported to the University of Copenhagen for further measurements. Ultimate pH was measured, as well as colour by Minolta L*a*b*. Dry matter content was determined by drying muscle samples at 105° C. for 24 h. Slices of 3 cm thickness were cut, measured and vacuum packed before being stored for a further 7 days at 2° C. At the end of the storage period samples were heated to an internal temperature of 75° C. After being cooled down, samples were stored cold at 2° C. until they were cut into slabs of 1 cm×1 cm×2.5 cm size for shear force measurement. For each animal, 8 specimens were measured and the mean maximum load was used for further analysis.

[5] = post (n = 6), after 1 weeks dietary supplementation
[6] = pre (n = 6), before supplementation
[7] = Initial (2 days post mortem), square root of a*^2+b*^2
[8] = MAP 80% O2/20% CO2 (9 days post mortem)
[9] = Slaughter house, 45 min post mortem

Row | Compound | Storage loss ([1]; MAP (80% O2 + 20% CO2)) | Storage loss ([1]; Vacuum) | Light reflection (L*) ([3]; Initial (2 days post mortem)) | Redness (a*) ([3]; Initial (2 days post mortem)) | Yellowness (b*) ([3]; Initial (2 days post mortem)) | Saturation index [3, 7] | Redness (a*) [3, 8] | Saturation index [3, 8] | Yellowness (b*) [3, 8] | pH ([4]; Laboratory, 2 days post mortem) | Temperature [4, 9] | pH [4, 9] | other results
1 | CSCCC(N)C(=O)O (racemic) [DLM, DL-methionine] | 9.34 ± 0.83 ^A g | 4.56 ± 0.89 ^B g | 55.75 ± 1.25 ^B | 6.69 ± 0.58 ^C, D | 2.92 ± 0.46 ^C | 7.33 ± 0.67 ^E | 7.83 ± 0.59 ^A, B, C, D | 10.55 ± 0.69 ^A, B, C, D | 7.10 ± 0.49 ^A, B | 5.50 | 39 °C | 6.10 | Heart Rate [2, 5]: 110.11 bpm; Q-T Interval [2, 5]: 242.31 ms; Respiration [2, 5]: 23.53 breaths/min; Difference in Q-T Interval: INCREASE by ([2]; post versus pre, P < 0.01): 8.5% P < 0.01; Difference in Heart Rate: DECREASE by ([2]; post versus pre, ns): 9% (ns); Difference in Respiration: DECREASE by ([2]; post versus pre, ns): 12% (ns); Heart Rate [2, 6]: 121.17 bpm; Q-T Interval [2, 6]: 223.21 ms; Respiration [2, 6]: 26.83 breaths/min
2 | CSCCC(O)C(=O)O (racemic) [HMTBA, 2-hydroxy-4-(methylthio) butanoic acid] | 6.37 ± 0.83 ^A, B g | 4.63 ± 0.83 ^B g | 56.89 ± 1.25 ^A, B | 7.58 ± 0.58 ^B, D | 3.71 ± 0.46 ^C | 8.46 ± 0.67 ^C, D, E | 7.43 ± 0.59 ^B, D | 9.81 ± 0.69 ^B, C, D, E | 6.35 ± 0.49 ^B | 5.40 | 39 °C | 6.20 | 
